Drawing on ChEMBL document CHEMBL5727746, “Benzothiazol compounds and methods using the same for treating neurodegenerative disorders” (2020), this text covers IC50 for one molecule.

In the test the target is Mast/stem cell growth factor receptor Kit (Homo sapiens, UniProt P10721). The test is described as follows: Magnesium chloride (MgCl2), Manganese(II) chloride (MnCl2), Bovine serum albumin (BSA) and dimethylsulfoxide (DMSO) were purchased from Sigma-Aldrich.

Molecules are shown by their SMILES.

As a reminder, the IC50 is the concentration that gives 50% inhibition. Read a low IC50 as greater potency.

Mast/stem cell growth factor receptor Kit, sequence (P10721 whole entry): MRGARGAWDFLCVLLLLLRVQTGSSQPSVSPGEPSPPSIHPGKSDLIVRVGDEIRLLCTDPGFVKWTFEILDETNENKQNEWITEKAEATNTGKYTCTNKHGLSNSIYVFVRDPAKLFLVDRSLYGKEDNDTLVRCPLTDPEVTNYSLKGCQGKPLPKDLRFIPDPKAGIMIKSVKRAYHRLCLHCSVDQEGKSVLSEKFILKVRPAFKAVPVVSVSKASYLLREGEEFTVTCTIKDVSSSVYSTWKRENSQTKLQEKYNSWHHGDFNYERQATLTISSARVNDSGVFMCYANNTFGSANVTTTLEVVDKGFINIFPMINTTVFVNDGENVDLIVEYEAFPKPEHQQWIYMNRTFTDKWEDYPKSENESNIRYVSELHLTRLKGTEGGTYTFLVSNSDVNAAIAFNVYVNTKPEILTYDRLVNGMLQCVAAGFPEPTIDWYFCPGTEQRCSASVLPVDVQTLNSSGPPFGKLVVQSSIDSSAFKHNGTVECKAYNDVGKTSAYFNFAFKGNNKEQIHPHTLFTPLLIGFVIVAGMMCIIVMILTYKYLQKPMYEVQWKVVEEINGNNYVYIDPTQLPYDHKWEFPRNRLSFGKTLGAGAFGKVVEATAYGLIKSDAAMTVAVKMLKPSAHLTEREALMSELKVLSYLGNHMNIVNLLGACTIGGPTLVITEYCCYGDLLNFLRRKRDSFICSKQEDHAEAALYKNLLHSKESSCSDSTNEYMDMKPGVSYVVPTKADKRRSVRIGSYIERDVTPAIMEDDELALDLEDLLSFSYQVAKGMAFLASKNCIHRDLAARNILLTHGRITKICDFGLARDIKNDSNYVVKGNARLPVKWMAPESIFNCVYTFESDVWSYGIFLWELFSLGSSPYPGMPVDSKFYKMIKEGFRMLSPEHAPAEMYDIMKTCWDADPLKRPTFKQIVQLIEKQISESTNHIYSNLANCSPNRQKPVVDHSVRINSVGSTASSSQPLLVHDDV

Consider `Cc1ccc2c(c1-c1ccc3nc(NC(=O)[C@@H]4C[C@@H]4F)sc3c1)CCN2`, for which the IC50 is more than 10 µM.
